Laboratory results reported in US9504675B2, “Alpha-ketoheterocycles and methods of making and using” (The Scripps Research Institute, priority 2011, dated 2016).
“Also recorded” adds a separate entry of the source.

Tests used:
[1] = target: T1, recombinant rat FAAH (rFAAH) (Rattus norvegicus, UniProt P97612); assay: Enzyme assay: inhibition of purified recombinant rat FAAH, 14C-oleamide hydrolysis, Ki by Dixon plot; format: biochemical; details: for Ki: rFAAH, Table 5, active (S)-enantiomers
T1 construct: The truncated rat FAAH (rFAAH) was expressed in E. coli and purified; made in house; host or cells: Escherichia coli
T1 sequence (P97612 30-579 limits assumed): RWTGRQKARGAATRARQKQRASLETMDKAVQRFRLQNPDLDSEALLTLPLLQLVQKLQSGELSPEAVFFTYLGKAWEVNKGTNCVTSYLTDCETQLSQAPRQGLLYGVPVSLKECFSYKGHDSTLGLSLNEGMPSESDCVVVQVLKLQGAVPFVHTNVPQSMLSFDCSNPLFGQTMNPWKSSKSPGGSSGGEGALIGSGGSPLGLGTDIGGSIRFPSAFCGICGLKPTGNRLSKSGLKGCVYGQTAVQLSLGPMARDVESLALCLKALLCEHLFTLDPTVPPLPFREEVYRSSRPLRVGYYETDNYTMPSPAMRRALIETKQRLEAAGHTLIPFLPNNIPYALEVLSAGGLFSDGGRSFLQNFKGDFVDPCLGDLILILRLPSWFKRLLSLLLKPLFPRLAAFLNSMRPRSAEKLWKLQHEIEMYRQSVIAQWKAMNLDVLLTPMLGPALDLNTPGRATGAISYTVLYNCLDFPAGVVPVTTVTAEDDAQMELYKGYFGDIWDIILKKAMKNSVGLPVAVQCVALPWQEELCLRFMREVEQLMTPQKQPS
In short: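 Hydrolysis of 14C-oleamide at 20-23° C by purified truncated rat FAAH expressed in E. coli or by lysate of COS-7 cells transfected with full-length human FAAH, in 125 mM Tris/1 mM EDTA/0.2% glycerol/0.02% Triton X-100/0.4 mM Hepes, pH 9.0. Reaction stopped in 0.1 N HCl at three time points; substrate and product separated by TLC; Ki from Dixon plot.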

human FAAH (hFAAH) = target: T2, human FAAH (hFAAH) (Homo sapiens, UniProt O00519); assay: Enzyme assay: inhibition of human FAAH (lysate of hFAAH-transfected COS-7 cells), 14C-oleamide hydrolysis; format: biochemical; details: for Ki: Table 5, active (S)-enantiomers; for reduction in activity against the human enzyme versus rat FAAH: hFAAH vs rFAAH, active (S)-enantiomers
T2 construct: The full-length human FAAH (hFAAH) was expressed in COS-7 cells; expressed in transfected cells; host or cells: COS-7 (transiently transfected with human FAAH cDNA)
T2 sequence (O00519 1-579): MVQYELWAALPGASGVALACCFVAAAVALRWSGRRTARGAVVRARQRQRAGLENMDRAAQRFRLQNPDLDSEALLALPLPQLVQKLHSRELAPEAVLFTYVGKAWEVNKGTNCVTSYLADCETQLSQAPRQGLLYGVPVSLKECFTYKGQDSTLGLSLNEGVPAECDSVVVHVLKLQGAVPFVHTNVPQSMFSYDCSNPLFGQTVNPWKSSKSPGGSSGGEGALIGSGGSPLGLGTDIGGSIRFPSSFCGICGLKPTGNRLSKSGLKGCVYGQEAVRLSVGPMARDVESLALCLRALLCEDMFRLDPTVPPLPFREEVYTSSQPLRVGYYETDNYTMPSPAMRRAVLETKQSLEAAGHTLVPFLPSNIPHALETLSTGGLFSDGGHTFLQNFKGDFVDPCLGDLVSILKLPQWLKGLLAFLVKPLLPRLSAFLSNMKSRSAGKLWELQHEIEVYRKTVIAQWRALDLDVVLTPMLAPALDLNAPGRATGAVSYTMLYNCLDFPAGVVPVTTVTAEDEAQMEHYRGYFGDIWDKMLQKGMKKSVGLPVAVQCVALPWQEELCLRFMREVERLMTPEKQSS
Protocol: Enzyme assays were performed at 20-23° C. with purified recombinant rat FAAH expressed in Escherichia coli or with solubilized COS-7 membrane extracts from cells transiently transfected with human FAAH cDNA (where specifically indicated) in a buffer of 125 mM Tris/1 mM EDTA/0.2% glycerol/0.02% Triton X-100/0.4 mM Hepes, pH 9.0.
^14C-labeled oleamide was prepared from ^14C-labeled oleic acid. The truncated rat FAAH (rFAAH) was expressed in E. coli and purified. The purified recombinant rFAAH was used in the inhibition assays unless otherwise indicated. The full-length human FAAH (hFAAH) was expressed in COS-7 cells as described, and the lysate of hFAAH-transfected COS-7 cells was used in the inhibition assays where explicitly indicated.
The inhibition assays were performed as follows. […] The enzyme reaction was terminated by transferring 20 μL of the reaction mixture to 500 μL of 0.1 N HCl at three different time points. The ^14C-labeled oleamide (substrate) and oleic acid (product) were extracted with EtOAc and analyzed by TLC as detailed. The Ki of the inhibitor was calculated using a Dixon plot as described (standard deviations are provided in the Supporting Information tables).

[2] = tested on: endogenous levels of FAAH substrates AEA, PEA, OEA and of 2-AG, AA; assay: In vivo pharmacodynamic studies: brain and liver lipid levels after inhibitor treatment (LC-MS); design: species or system mouse (C57BL/6J)
Protocol: This includes monitoring the effects of the inhibitors on the endogenous levels of the FAAH substrates anandamide (AEA, N-arachidonoyl ethanolamine), N-oleoyl ethanolamine (OEA), and N-palmitoyl ethanolamine (PEA), as well as the key lipids 2-arachidonoylglycerol (2-AG) and arachidonic acid (AA) that are not endogenous substrates for FAAH.
Inhibitors were prepared as a saline-emulphor emulsion for intraperitoneal (i.p.) administration by vortexing, sonicating, and gently heating neat compound directly into an 18:1:1 v/v/v solution of saline:ethanol:emulphor, or as a homogeneous PEG solution for oral administration (p.o.) by vortexing, sonicating, and gently heating neat compound directly into PEG300 (Fluka). Male C57BL/6J mice (<6 months old, 20-28 g) were administered inhibitors in saline-emulphor emulsion or an 18:1:1 v/v/v saline:emulphor:ethanol vehicle i.p. at a volume of 10 μL/g weight, or alternatively inhibitors in PEG300 or a PEG300 vehicle p.o. at a volume of 4 μL/g weight. After the indicated amount of time, mice were anesthetized with isofluorane and killed by decapitation. Total brains (˜400 mg) and a portion of the liver (˜100 mg) were removed and flash frozen in liquid N2.
Tissue was weighed and subsequently Dounce homogenized in 2:1:1 v/v/v CHCl3:MeOH:Tris pH 8.0 (8 mL) containing standards for lipids (50 pmol d4-PEA, 2 pmol d4-AEA, 0.5 nmol ds-2-AG, and 10 nmol pentadecanoic acid). The mixture was vortexed and then centrifuged (1,400×g, 10 min). The organic layer was removed, dried under a stream of N2, resolubilized in 2:1 v/v CHCl3:MeOH (120 μL), and 10 μL of this resolubilized lipid was injected onto an Agilent G6410B QQQ instrument. […] Mobile phase A was composed of a 95:5 v/v H2O:MeOH, and mobile phase B was composed of a 65:35:5 v/v/v i-PrOH:MeOH:H2O. 0.1% Formic acid or 0.1% ammonium hydroxide was included to assist in ion formation in positive and negative ionization mode, respectively. The flow rate for each run started at 0.1 mL/min with 0% B. At 5 min, the solvent was immediately changed to 60% B with a flow rate of 0.4 mL/min and increased linearly to 100% B over 10 min. […] MS analysis was performed with an electrospray ionization (ESI) source. […] For negative polarity, the analysis was performed in MS2 scan mode from 100-1000 m/z. The capillary was set to 4 kV, the fragmentor was set to 100 V, and the delta EMV was set to 0. Lipids were quantified by measuring the area under the peak in comparison to the standards.

[3] = tested on: mice with CCI neuropathic pain; assay: Chronic constriction injury (CCI) of the sciatic nerve: mechanical (von Frey) and cold (acetone) allodynia; format: in vivo, mouse (C57BL/6); details: 50 mg/kg p.o.
Protocol: Surgery was performed as follows. Briefly, the right hind leg of male C57BL/6 mice was shaved and swabbed with betadine solution and ethanol. Posterior to the femur, an incision was made and the sciatic nerve was visualized and isolated, following muscle separation. The nerve was ligated twice with 5-0 (1.0 metric) black silk braided suture (Surgical Specialties Corporation, Reading, Pa.). The surrounding muscle and skin were then sutured with 6-0 nylon. Mice were recovered in a heated cage and observed for approximately 2 h before being returned to the vivarium.
Allodynia was initially tested 10 days after surgery. Male C57BL/6 mice were habituated to the test apparatus for 2 h on the 2 days prior to testing. On the test day, the mice were brought into the test room, weighed, and allowed to acclimate for at least 1 h before the start of the experiment. […] Mechanical (von Frey) and cold (acetone-induced) allodynia were tested at 1, 3, 6, and 9 h post drug administration. Testing was carried out by a separate observer who was blinded to treatment conditions. Mechanical allodynia was assessed with von Frey filaments (North Coast Medical, Morgan Hill, Calif.), using the “up-down” method. Each hind paw was stimulated 5 times per filament (0.16-6.0 g), starting with the 0.6 g filament and increasing weight. Paw clutching or lifting, in response to three or more stimulations, was coded as a positive response. Once a positive response was detected, sequentially lighter-weight filaments were used to assess paw withdrawal threshold. Approximately 30 min after completing the von Frey test, cold allodynia was tested by propelling 10 μL of acetone (Fisher Bioscience) via air burst, from a 200 μL pipette (Rainin Instruments, Oakland, Calif.) onto the plantar surface of each hind paw. Total time lifting or clutching each paw was recorded, with a maximum time of 20 s.
Data Analyses: Behavioral data were analyzed using a two-way mixed factorial analysis of variance (ANOVA) for each paw, with drug treatment as the between subjects measure, and time as the within subjects measure. Follow-up comparisons were made using the Bonferroni test. All animals were included in the analyses. Differences between groups were considered statistically significant at p<0.05.

[4] = tested on: catalepsy, hypothermia, hypomotility (THC-like effects); assay: Cannabimimetic side effects after oral administration; format: in vivo; details: oral administration 50 mg/kg
[5] = Rat liver microsome stability (rlm t1/2); format: in vitro ADME; details: rat liver microsomes
[6] = Human liver microsome stability (hlm t1/2); format: in vitro ADME; details: human liver microsomes
[7] = tested on: mice, acute thermal pain (tail flick at 52° C.); assay: Mouse tail flick assay (52° C. warm water), acute thermal pain; format: in vivo, mouse (CD-1); details: i.v. administration
Protocol: Concurrent with these studies, two prototypical inhibitors 12 and 14 were examined for antinociceptive activity in a preclinical model of acute thermal pain (tail flick at 52° C.) in mice alongside 2 and morphine (i.v. administration).
Male CD-1 (25-35 g, Charles River) mice were housed in groups of five in Plexiglas chambers with food and water available ad libitum. All animals were maintained on a 12 h light/dark cycle (lights on at 7:00 AM) in a temperature- and humidity-controlled animal colony. All tail-flick experiments were performed under an approved University of New England animal protocol in accordance with institutional guidelines and in accordance with the Guide for the Care and Use of Laboratory Animals as adopted and promulgated by the National Institutes of Health. Efficacy of the test compound was assessed using the 52° C. warm water tail-flick test. The latency to the first sign of a rapid tail-flick was taken as the behavioral endpoint. Each mouse was first tested for baseline latency by immersing its tail in the water and recording the time to response. Mice not responding within 5 sec were excluded from further testing. Mice were then administered the test compound and tested for antinociception at various time points afterwards. Antinociception was calculated by the following formula: % Antinociception=100×(test latency−control latency)/(10−control latency). A maximum score was assigned (100%) to animals not responding within 10 sec to avoid tissue damage.

[8] = 50 mg/kg p.o., time course up to 9 h
[9] = Table 6, 30 mg/kg i.p., 1 h, single mouse
[10] = Table 7, i.p. (30 mg/kg), 3 mice per group
[11] = Table 7, oral (50 mg/kg), 3 mice per group
[12] = Table 6, 30 mg/kg i.p., 1 h, single mouse, vs vehicle
[13] = Table 7, i.p. (30 mg/kg), 3 mice per group, vs vehicle
[14] = Table 7, oral (50 mg/kg), 3 mice per group, vs vehicle

Compound	Ki [1]	Ki (human FAAH (hFAAH))	reduction in activity against the human enzyme versus rat FAAH (human FAAH (hFAAH))	Brain 2-AG [2, 9]	Brain AA [2, 9]	Brain AEA [2, 9]	Brain PEA [2, 9]	Liver 2-AG [2, 9]	Liver AEA [2, 9]	Liver PEA [2, 9]	Brain 2-AG [2, 10]	Brain AEA [2, 10]	Brain PEA [2, 10]	Brain 2-AG [2, 11]	Brain AEA [2, 11]	Brain PEA [2, 11]	Brain AEA (fold increase) [2, 12]	Brain PEA (fold increase) [2, 12]	Liver 2-AG (fold increase) [2, 12]	Liver AEA (fold increase) [2, 12]	also measured
O=C(c1ncc(-c2ccccn2)o1)C1CCc2cc(Oc3ccccc3)ccc2C1 (stereo not shown) [Compound 12, (6-Phenoxy-1,2,3,4-tetrahydronaphthalen-2-yl)(5-(pyridin-2-yl)oxazol-2-yl)methanone]	4.4 nM	5.8 nM	no significant distinction	13 pmol/g	170 pmol/g	42 pmol/g	785 pmol/g	0.25 pmol/g	12 pmol/g	472 pmol/g	7.0 pmol/g	28.6 pmol/g	599 pmol/g	11.5 pmol/g	43.2 pmol/g	772 pmol/g	–	–	–	–	mode of inhibition (Lineweaver-Burk analysis) [1]: reversible, competitive inhibitor; also recorded: competitive, reversible inhibition; duration of elevation of brain N-acylethanolamines (AEA, PEA, OEA) [2, 8]: maintained over the 9 h time course; time of peak brain levels of anandamide [2, 8]: 1.5 to 3 h; increases in brain levels of N-palmitoyl ethanolamine and N-oleoyl ethanolamine ([2]; p.o. 10, 25 and 50 mg/kg, 1 h): 5.5-7.8 fold; increase in brain levels of anandamide ([2]; p.o. 25-50 mg/kg, 1 h): 12-13 fold; duration of effect on cold allodynia [3]: > 9 h; duration of effect on mechanical allodynia [3]: > 6 h; mechanical or cold allodynia in control (contralateral) paws [3]: no effect; duration of attenuation of neuropathic pain ([3]; FIG. 9 legend): up to 9 hours; cannabimimetic side effects [4]: did not produce catalepsy, hypothermia, or hypomotility
O=C(CCCCCCc1ccccc1)c1ncc(-c2ccccn2)o1 [Compound 2, reference compound]	–	–	no significant distinction	–	–	38 pmol/g	540 pmol/g	0.28 pmol/g	14 pmol/g	208 pmol/g	–	–	–	–	–	–	4.8 fold increase	5.0 fold increase	0.9 fold increase	7 fold increase	Liver PEA (fold increase) [2, 12]: 1.6 fold increase; increase in brain levels of anandamide ([2]; p.o. 50 mg/kg, 1 h): 11 fold; half-life [5]: 2 to 4 min; half-life [6]: 2 to 4 min
O=C(c1ncc(-c2ccccn2)o1)C1CCc2cc(OCc3ccccc3)ccc2C1 (stereo not shown) [Compound 18, (6-(Benzyloxy)-1,2,3,4-tetrahydronaphthalen-2-yl)(5-(pyridin-2-yl)oxazol-2-yl)methanone]	–	–	–	–	–	–	–	–	–	–	–	–	–	–	–	–	–	–	–	–	half-life [5]: 12 to 15 min; half-life [6]: 12 to 15 min
O=C(O)c1cccc(-c2cnc(C(=O)C3CCc4cc(Oc5ccccc5)ccc4C3)o2)n1 (stereo not shown) [Compound 14, 6-(2-(6-Phenoxy-1,2,3,4-tetrahydronaphthalene-2-carbonyl)oxazol-5-yl)picolinic acid]	25 nM	110 nM	4 fold	14 pmol/g	154 pmol/g	12 pmol/g	224 pmol/g	0.35 pmol/g	10 pmol/g	284 pmol/g	8.5 pmol/g	9.0 pmol/g	321 pmol/g	11.2 pmol/g	19.8 pmol/g	260 pmol/g	1.5 fold increase	2.0 fold increase	1.1 fold increase	5 fold increase	Brain 2-AG (fold increase) [2, 12]: 1.0 fold increase; Brain AA (fold increase) [2, 12]: 0.7 fold increase; Liver PEA (fold increase) [2, 12]: 2.1 fold increase; Brain AEA (fold increase) [2, 13]: 1.6 fold increase; Brain PEA (fold increase) [2, 13]: 4.5 fold increase; Brain AEA (fold increase) [2, 14]: 3.5 fold increase; Brain PEA (fold increase) [2, 14]: 3.7 fold increase; dose needed for maximal effect relative to morphine [7]: 2 fold; duration of antinociceptive effect [7]: 150 min; time of maximal antinociceptive effect [7]: 30 to 60 min; maximal antinociceptive effect (efficacy) ([7]; dose-response alongside morphine): same maximal effect (efficacy) observed with morphine
